We go through 6 compounds from US20160016998A1, “HIGH-AFFINITY MATRIPTASE INHIBITORS” (MERCK PATENT GMBH, priority 2013, published 2016).

Usually Ki stands for the dissociation constant of the complex between target and ligand, obtained from inhibition or displacement. A lower Ki goes with higher affinity.

Molecules are shown by their SMILES. Like-named read-outs stand apart in the source and are kept apart here. Bridge positions count the residues as written; N and C are the ends. Peptide text beside a SMILES is read from it.

For series [1] the following is noted: disulfide bond, air (O2), (NH4)2CO3 buffer pH 8.4, water, 168.0 h.
A further series deals with T1, Bovine trypsin (Bos taurus, UniProt P00760).
T1 construct: purchased Sigma-Aldrich
T1 sequence (P00760 24-246): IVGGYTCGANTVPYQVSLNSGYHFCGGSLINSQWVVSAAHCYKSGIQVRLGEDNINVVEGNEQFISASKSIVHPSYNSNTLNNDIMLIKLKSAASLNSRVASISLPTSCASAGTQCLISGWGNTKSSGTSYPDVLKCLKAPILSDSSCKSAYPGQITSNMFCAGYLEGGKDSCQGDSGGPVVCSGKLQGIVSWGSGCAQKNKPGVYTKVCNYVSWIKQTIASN
In words: Trypsin enzyme inhibition assay with chromogenic substrate Boc-QAR-pNA. The format is biochemical. The conditions noted are these: pH 7.6. How it is done: (§1) Recombinant production, autocatalytic activation and purification of matriptase were conducted as previously described. Bovine trypsin was purchased from Sigma-Aldrich. Active-site titration and determination of Michaelis-Menten constants KM for the chromogenic substrate Boc-QAR-pNA was performed as reported earlier.
All experiments were performed in triplicate. Active-site titrated matriptase (final concentration: [E]=0.9 nM) or trypsin (final concentration: [E]=0.5 nM) were incubated with the respective inhibitor in different concentrations [I] at pH 7.6 or 8.5 for 30 min. Then, the chromogenic substrate Boc-QAR-pNA (final concentration: [S]=250 μM) was added. The residual proteolytic activity (v/v0) was determined by monitoring the absorption of the corresponding samples in 96-well plates (NUNC, round bottom, clear) at 405 nm in 60 sec intervals over 30 min at RT using the Tecan GENios microplate reader. Slopes of the initial reaction velocities (steady-state) were calculated and normalized to the data of the uninhibited enzymatic hydrolysis of Boc-QAR-pNA. The determined v/v0 values were plotted against the concentration of the inhibitor. The resulting dose-response curves were fitted either by equation 1 or in case of tight-binding inhibition (trypsin: 42; matriptase: 43 at pH 8.5, 44 at pH 7.6 and 8.5) by equation 2 through non-linear regression.
(§2) Errors were calculated through propagation of errors (compare Tischler et al.).[17]

Another series concerns the target T2, matriptase (Homo sapiens, UniProt Q9Y5Y6).
T2 construct: made in house
T2 sequence (Q9Y5Y6 615-855 limits assumed): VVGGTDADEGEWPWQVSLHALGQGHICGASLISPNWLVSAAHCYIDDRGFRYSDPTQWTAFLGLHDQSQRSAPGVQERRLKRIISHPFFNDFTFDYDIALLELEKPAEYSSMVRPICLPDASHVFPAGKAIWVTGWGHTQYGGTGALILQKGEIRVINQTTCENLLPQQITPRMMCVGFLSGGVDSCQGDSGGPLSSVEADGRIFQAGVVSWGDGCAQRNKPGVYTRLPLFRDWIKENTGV
In words: Matriptase enzyme inhibition assay with chromogenic substrate Boc-QAR-pNA. Format: biochemical. The conditions noted are these: for matriptase affinity / inhibitor potency in words: enzyme inhibition assays, comparator as worded; for Relative Activity: ratio Ki of compound / Ki of SFTI-1[1,14]; for Sum of Increment Contributions: sum of ΔBG differences of the single modifications. Here is the method: as §1
All experiments were performed in triplicate. […] Slopes of the initial reaction velocities (steady-state) were calculated and normalized to the data of the uninhibited enzymatic hydrolysis of Boc-QAR-pNA. The determined v/v0 values were plotted against the concentration of the inhibitor.
as §2

Regarding `CC[C@H](C)[C@@H]1NC(=O)[C@@H]2CCCN2C(=O)[C@@H]2CCCN2C(=O)[C@H](Cn2cc(CN)nn2)NC(=O)[C@H](CO)NC(=O)[C@H](CCCCN)NC(=O)[C@H]([C@@H](C)O)NC(=O)[C@@H](NC(=O)[C@H](CCCNC(=N)N)NC(=O)CN)CSSC[C@@H](C(=O)N[C@@H](Cc2ccccc2)C(=O)N2CCC[C@H]2C(=O)N[C@@H](CC(=O)O)C(=O)O)NC1=O`, the ring closure, yield of all isomers in series [1] (from CC[C@H](C)[C@H](NC(=O)[C@@H]1CCCN1C(=O)[C@@H]1CCCN1C(=O)[C@H](Cn1cc(CN)nn1)NC(=O)[C@H](CO)NC(=O)[C@H](CCCCN)NC(=O)[C@@H](NC(=O)[C@H](CS)NC(=O)[C@H](CCCNC(=N)N)NC(=O)CN)[C@@H](C)O)C(=O)N[C@@H](CS)C(=O)N[C@@H](Cc1ccccc1)C(=O)N1CCC[C@H]1C(=O)N[C@@H](CC(=O)O)C(=O)O, 0.63 mM, 4 steps) came to 17%.
In series [1] (from CC[C@H](C)[C@H](NC(=O)[C@H](CO)NC(=O)[C@H](CCCCN)NC(=O)[C@@H](NC(=O)[C@H](CS)NC(=O)[C@H](CCCNC(=N)N)NC(=O)CN)[C@@H](C)O)C(=O)N1CCC[C@H]1C(=O)N1CCC[C@H]1C(=O)N[C@@H](CCCCN)C(=O)N[C@@H](CS)C(=O)N[C@@H](Cc1ccccc1)C(=O)N1CCC[C@H]1C(=O)N[C@@H](CC(=O)O)C(=O)O, […], 29 steps), `CC[C@H](C)[C@@H]1NC(=O)[C@H](CO)NC(=O)[C@H](CCCCN)NC(=O)[C@H]([C@@H](C)O)NC(=O)[C@@H](NC(=O)[C@H](CCCNC(=N)N)NC(=O)CN)CSSC[C@@H](C(=O)N[C@@H](Cc2ccccc2)C(=O)N2CCC[C@H]2C(=O)N[C@@H](CC(=O)O)C(=O)O)NC(=O)[C@H](CCCCN)NC(=O)[C@@H]2CCCN2C(=O)[C@@H]2CCCN2C1=O` displayed a ring closure, yield of all isomers of 3.9%.
In series [1] (from CC[C@H](C)[C@H](NC(=O)[C@H](CO)NC(=O)[C@H](CCCCN)NC(=O)[C@@H](NC(=O)[C@H](CS)NC(=O)[C@H](CCCNC(=N)N)NC(=O)CN)[C@@H](C)O)C(=O)N1CCC[C@H]1C(=O)N1CCC[C@H]1C(=O)N[C@@H](Cn1cc(CN)nn1)C(=O)N[C@@H](CS)C(=O)N[C@@H](Cc1ccccc1)C(=O)N1CCC[C@H]1C(=O)N[C@@H](CC(=O)O)C(=O)O, 0.63 mM, 22 steps), `CC[C@H](C)[C@@H]1NC(=O)[C@H](CO)NC(=O)[C@H](CCCCN)NC(=O)[C@H]([C@@H](C)O)NC(=O)[C@@H](NC(=O)[C@H](CCCNC(=N)N)NC(=O)CN)CSSC[C@@H](C(=O)N[C@@H](Cc2ccccc2)C(=O)N2CCC[C@H]2C(=O)N[C@@H](CC(=O)O)C(=O)O)NC(=O)[C@H](Cn2cc(CN)nn2)NC(=O)[C@@H]2CCCN2C(=O)[C@@H]2CCCN2C1=O` came in with a ring closure, yield of all isomers of 21.2%.
Consider `CC[C@H](C)[C@@H]1NC(=O)[C@H](CO)NC(=O)[C@H](CCCCN)NC(=O)[C@H]([C@@H](C)O)NC(=O)[C@@H](NC(=O)[C@H](CCCNC(=N)N)NC(=O)CN)CSSC[C@@H](C(=O)N[C@@H](Cc2c[nH]cn2)C(=O)N2CCC[C@H]2C(=O)N[C@@H](CC(=O)O)C(=O)O)NC(=O)[C@H](Cn2cc(CN)nn2)NC(=O)[C@@H]2CCCN2C(=O)[C@@H]2CCCN2C1=O` [Compound 42], for which the Ki was 9.2 ± 2.1 nM on Bovine trypsin and 89.5 ± 11.1 nM at matriptase (pH 7.6 (Table 2)). This compound displayed a ring closure, yield of all isomers in series [1] (from CC[C@H](C)[C@H](NC(=O)[C@H](CO)NC(=O)[C@H](CCCCN)NC(=O)[C@@H](NC(=O)[C@H](CS)NC(=O)[C@H](CCCNC(=N)N)NC(=O)CN)[C@@H](C)O)C(=O)N1CCC[C@H]1C(=O)N1CCC[C@H]1C(=O)N[C@@H](Cn1cc(CN)nn1)C(=O)N[C@@H](CS)C(=O)N[C@@H](Cc1c[nH]cn1)C(=O)N1CCC[C@H]1C(=O)N[C@@H](CC(=O)O)C(=O)O, 0.63 mM, 30 steps) of 1.2%. Besides, the “matriptase affinity / inhibitor potency in words” value at matriptase (pH 7.6) is “further increased matriptase affinity compared to SFTI-1[1,14] derivatives 9, 18, and 22”. Besides, the “ΔBG(x)-ΔBG(SFTI-1[1,14])” value at matriptase (matriptase, pH 7.6 (Table 2)) was 1.22 ± 0.096 kcal/mol. Further, the “Relative Activity” value at matriptase (matriptase, pH 7.6 (Table 2)) worked out at 0.13. Also, the “Sum of Increment Contributions” value at matriptase (matriptase, pH 7.6) stood at 1.65 ± 0.14 kcal/mol.
Take `CC[C@H](C)[C@@H]1NC(=O)[C@H](CO)NC(=O)[C@H](CCCCN)NC(=O)[C@H]([C@@H](C)O)NC(=O)[C@@H](NC(=O)[C@H](CCCNC(=N)N)NC(=O)CN)CSSC[C@@H](C(=O)N[C@@H](Cc2c[nH]cn2)C(=O)N2CCC[C@H]2C(=O)N[C@@H](CC(=O)O)C(=O)O)NC(=O)[C@H](CCCNC(=N)N)NC(=O)[C@@H]2CCCN2C(=O)[C@@H]2CCCN2C1=O` [Compound 43] (H-GRCTKSIPPRCHPD-OH; disulfide 3-11; N-terminus assumed): the inhibition constant (Ki) at Bovine trypsin was 11.2 ± 2 nM. Moreover, the “sum of individual favorable contributions to ΔBG” value at matriptase (contributions of compounds 18 and 22) was determined as 2.29 ± 0.14 kcal/mol. The “matriptase affinity / inhibitor potency in words” value on matriptase (pH 7.6) was “further increased matriptase affinity compared to SFTI-1[1,14] derivatives 9, 18, and 22”. Further, on matriptase (matriptase, pH 7.6), the “difference of the free energies of binding/dissociation ΔBG between compound and SFTI-1[1,14]” value amounted to 2.46 ± 0.096 kcal/mol; the “Sum of Increment Contributions” value was 2.29 ± 0.14 kcal/mol. On matriptase (matriptase, pH 7.6 (Table 2)), the “ΔBG(x)-ΔBG(SFTI-1[1,14])” value came out at 2.46 ± 0.096 kcal/mol and the “Relative Activity” value was determined as 0.016. Moreover, the inhibitory constant (Ki) at matriptase (pH 7.6 (Table 2)) was 11 nM. At matriptase (pH 8.5 (values in brackets)), this compound registered an inhibition constant (Ki) of 1.1 nM.
For the compound `CC[C@H](C)[C@@H]1NC(=O)[C@H](CO)NC(=O)[C@H](CCCCN)NC(=O)[C@H]([C@@H](C)O)NC(=O)[C@@H](NC(=O)[C@H](CCCNC(=N)N)NC(=O)CN)CSSC[C@@H](C(=O)N[C@@H](Cc2c[nH]cn2)C(N)=O)NC(=O)[C@H](CCCNC(=N)N)NC(=O)[C@@H]2CCCN2C(=O)[C@@H]2CCCN2C1=O` [Compound 44] (H-GRCTKSIPPRCH-NH2; disulfide 3-11; N-terminus assumed), the figures for the inhibition constant Ki at Bovine trypsin, on matriptase (pH 7.6 (Table 2)) and at matriptase (pH 8.5 (values in brackets)) were 38 ± 11.1 nM, 6.2 ± 1.2 nM and 2.3 ± 0.8 nM, respectively. In addition, the “ΔBG(x)-ΔBG(SFTI-1[1,14])” value at matriptase (matriptase, pH 7.6 (Table 2)) was 2.8 ± 0.14 kcal/mol. The “selectivity towards matriptase over trypsin” value at matriptase (pH 7.6) came to 6 fold. Also, the “Relative Activity” value at matriptase (matriptase, pH 7.6 (Table 2)) came out at 0.009.
